# Experimental data published in patent US20260285888A1, “HETEROCYCLIC COMPOUND AND USE THEREOF” (OTSUKA PHARMACEUTICAL CO., LTD., priority 2023, published 2026).
# What was measured:
# in vitro = assay type: cell-based, human; settings: human, differentiated hl-60 cells, 300 μmol/L, about 24 hours, PMA-differentiated HL-60 cells, LDH; no-treatment 0%, cell lysis buffer 100%; read-out: cytotoxicity (%) Evaluation compound results
# Outline: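 HL-60 cells differentiated ~72 h with 10 nM PMA, then exposed ~24 h to compound at 300 μmol/L final in RPMI with 2% FBS. LDH release in supernatant gave cytotoxicity % scaled between untreated (0%) and lysis-buffer (100%) groups; triplicate.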
# [1] = Study for confirmation of conversion to brexpiprazole in a buffer (stability of the evaluation compounds); assay type: physicochemical; settings: in buffer, average of duplicate; for Concentration of brexpiprazole formed: 60-minute reaction sample; for Concentration of evaluation compound decreased: decrease in 60-minute vs 0-minute reaction sample
# Outline: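 Compounds (final 1 μmol/L, from 100 μmol/L working solutions) incubated in buffer at 37° C. for 0 or 60 min, in duplicate, after 3 min pre-incubation of the reaction solution. Reactions stopped with acetonitrile/isopropanol (4:1) containing internal standards; compound and formed brexpiprazole quantified against 0.01–1 μmol/L calibration samples.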
SMILES,"cytotoxicity at 24 h, 300 µM (in vitro)",Concentration of brexpiprazole formed [1],Concentration of evaluation compound decreased [1]
"CC(C)OC(=O)[C@H](C)NP(=O)([O-])OC[N+]1(CCCCOc2ccc3ccc(=O)[nH]c3c2)CCN(c2cccc3sccc23)CC1 [EX 159, (4-(benzo[b]thiophen-4-yl)-1-(4-((2-oxo-1,2-dihydroquinolin-7-yl)oxy)butyl)piperazin-1-ium-1-yl)methyl (S)-(1-isopropoxy-1-oxopropan-2-yl)phosphoramidate]",-1%,0 nM,60 nM
"C[C@@H]1CN(CCOP(=O)([O-])OC[N+]2(CCCCOc3ccc4ccc(=O)[nH]c4c3)CCN(c3cccc4sccc34)CC2)C[C@H](C)O1 [EX 116, (4-(benzo[b]thiophen-4-yl)-1-(4-((2-oxo-1,2-dihydroquinolin-7-yl)oxy)butyl)piperazin-1-ium-1-yl)methyl (2-((2S,6R)-2,6-dimethylmorpholino)ethyl) phosphate]",-9%,0 nM,90 nM
"O=c1ccc2ccc(OCCCC[N+]3(COP(=O)([O-])OCCOCCO)CCN(c4cccc5sccc45)CC3)cc2[nH]1 [EX 93, (4-(benzo[b]thiophen-4-yl)-1-(4-((2-oxo-1,2-dihydroquinolin-7-yl)oxy)butyl)piperazin-1-ium-1-yl)methyl (2-(2-hydroxyethoxy)ethyl) phosphate]",-6%,0 nM,-10 nM
"CCCCOCCOCCOCCOC(=O)OCOP(=O)([O-])OC[N+]1(CCCCOc2ccc3ccc(=O)[nH]c3c2)CCN(c2cccc3sccc23)CC1 [EX 138, (4-(benzo[b]thiophen-4-yl)-1-(4-((2-oxo-1,2-dihydroquinolin-7-yl)oxy)butyl)piperazin-1-ium-1-yl)methyl (3-oxo-2,4,7,10,13-pentaoxaheptadecyl) phosphate]",-7%,0 nM,90 nM
"CC(C)(C)C(=O)OCCCCCCOP(=O)([O-])OC[N+]1(CCCCOc2ccc3ccc(=O)[nH]c3c2)CCN(c2cccc3sccc23)CC1 [EX 102, (4-(benzo[b]thiophen-4-yl)-1-(4-((2-oxo-1,2-dihydroquinolin-7-yl)oxy)butyl)piperazin-1-ium-1-yl)methyl (6-(pivaloyloxy)hexyl) phosphate]",16%,0 nM,70 nM
"CCOC(=O)C(CC)OP(=O)([O-])OC[N+]1(CCCCOc2ccc3ccc(=O)[nH]c3c2)CCN(c2cccc3sccc23)CC1 (stereo not drawn) [EX 110, (4-(benzo[b]thiophen-4-yl)-1-(4-((2-oxo-1,2-dihydroquinolin-7-yl)oxy)butyl)piperazin-1-ium-1-yl)methyl (1-ethoxy-1-oxobutan-2-yl) phosphate]",-3%,0 nM,70 nM
"CCOC(=O)OCOP(=O)([O-])OC[N+]1(CCCCOc2ccc3ccc(=O)[nH]c3c2)CCN(c2cccc3sccc23)CC1 [EX 129, (4-(benzo[b]thiophen-4-yl)-1-(4-(((2-oxo-1,2-dihydroquinolin-7-yl)oxy)butyl)piperazin-1-ium-1-yl)methyl (((ethoxycarbonyl)oxy)methyl) phosphate]",-4%,0 nM,90 nM
"CCOCCOP(=O)([O-])OC[N+]1(CCCCOc2ccc3ccc(=O)[nH]c3c2)CCN(c2cccc3sccc23)CC1 [EX 94, (4-(benzo[b]thiophen-4-yl)-1-(4-((2-oxo-1,2-dihydroquinolin-7-yl)oxy)butyl)piperazine-1-ium-1-yl)methyl (2-ethoxyethyl) phosphate]",-8%,0 nM,-70 nM
